Patent publication US8637474B2, “Receptor modulators exhibiting neuroprotective and memory enhancing activities” (The Hong Kong University of Science and Technology, priority 2007, dated 2014)
“Also recorded” adds a separate entry of the source.

Key:
[1] = system: rat primary cortical neurons; assay: NMDA survival assay (LDH release), primary cortical neurons; type: cell-based; conditions: NMDA 20 μM; for reduction of cell death compared to DA001: compounds in μg/ml, FIG. 13
Procedure: FIG. 5 DA001 protects against NMDA excitotoxicity in rat cortical neurons. Embryonic rat cortical neurons (11DIV) were treated with NMDA (20 μM) in the absence or presence of TCM samples (μg/ml) or memantine (μM). Memantine is a known NMDA antagonist. LDH release in the medium was measured after overnight incubation and cell cytotoxicity was calculated as a percentage when compared to the solvent control, DMSO.
FIG. 12. Derivatives of DA001 rescue the cortical neurons from NMDA excitotoxicity. Embryonic rat cortical neurons (11DIV) were treated with NMDA (20 μM) in the absence or presence of DA001 or its derivatives (10 or 30 μM); LDH release in the medium after overnight or 24 hours incubation was measured and cell death was calculated as a percentage in comparison to DMSO, the solvent control. Data are expressed as mean±s.e.m. *=P<0.05.
FIG. 13. DA002 and DA021, both derivatives of DA001, reduced NMDA-induced excitotoxicity. Embryonic rat cortical neurons (11DIV) were treated with NMDA (20 μM) in the absence or presence of DA002 or DA021 (μg/ml). LDH release in the medium after overnight incubation was measured and cell cytotoxicity was calculated as a percentage in comparison to DMSO, the solvent control.
DA001 (at 10 μg/ml) reduced cell death by more than 60% compared to the DMSO control. Compound A0178 and memantine were included as negative and positive controls, respectively.
Memantine is an FDA-approved NMDA antagonist used for clinical indications such as dementia in Alzheimer's disease. Dose-dependant assays were performed for each compound and based on the resulting dose response curve, the corresponding EC50 for each compound was determined.
NMDA survival assays were performed to measure the degree of protection provided to cortical neuronal cells when treated with the novel compounds (at 30 μM, except DA026 at 10 μM) prior to NMDA insult.
Compounds derived from DA001 were tested for their ability to inhibit NMDA-induced excitotoxicity. Primary rat cortical neurons were subjected to NMDA insults in the presence and absence of the novel derivatives.
Cortical neurons were pre-treated with DA001 and subsequently subjected to varying concentrations of NMDA. Survival assays were then conducted to determine the ability of DA001 to effectively protect neuronal cells from NMDA-induced excitotoxicity.
LDH release into the medium was then measured.
Primary cortical and hippocampal neurons were prepared from embryonic day 18 (E18) Sprague-Dawley rats. Neurons were plated on 24-well pate (TPP, Corning) at a density of 2×10^5 cells per well using Neurobasal medium (Invitrogen) supplemented with 2% B27 (Invitrogen). […] The cell death was assayed and quantified using the lactate dehydrogenase release assay (Roche) after 24 hours. […]

[2] = target: melanin concentrating hormone receptor MCH1 (Homo sapiens, UniProt Q99705); assay: Radioligand competition binding assay, MCH1; conditions: MCH1, DA001 10 μM, duplicate; read-out: % inhibition of control specific binding
melanin concentrating hormone receptor MCH1, sequence (Q99705 whole entry): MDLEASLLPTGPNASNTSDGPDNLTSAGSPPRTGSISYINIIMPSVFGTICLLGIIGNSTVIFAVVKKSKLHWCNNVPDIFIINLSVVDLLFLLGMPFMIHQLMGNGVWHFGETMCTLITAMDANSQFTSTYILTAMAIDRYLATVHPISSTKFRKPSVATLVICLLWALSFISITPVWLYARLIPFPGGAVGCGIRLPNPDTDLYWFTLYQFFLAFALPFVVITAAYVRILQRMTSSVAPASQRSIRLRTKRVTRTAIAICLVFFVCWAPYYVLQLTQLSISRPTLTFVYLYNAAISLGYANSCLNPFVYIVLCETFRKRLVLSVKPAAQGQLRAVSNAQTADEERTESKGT
Procedure: (§1) DA001 was evaluated against 109 receptor binding assays and 17 enzyme assays, comprising of selective, central and peripheral therapeutically-relevant targets. Radioligand competition assays were conducted whereby DA001 was tested at one concentration (10 μM) in duplicate. […] It could compete with the radioligand [^125I-NDP-alpha-melanocyte-stimulating hormone (α-MSH)] binding for MC1 and MC4 but not MC3 and MC5 nor the related family, the melanin concentrating hormone receptors (MCH1 and MCH2).

[3] = target: melanocortin-4 (MC4) receptor (Homo sapiens, UniProt P32245); assay: Radioligand competition binding assay, MC4
melanocortin-4 (MC4) receptor, sequence (P32245 whole entry): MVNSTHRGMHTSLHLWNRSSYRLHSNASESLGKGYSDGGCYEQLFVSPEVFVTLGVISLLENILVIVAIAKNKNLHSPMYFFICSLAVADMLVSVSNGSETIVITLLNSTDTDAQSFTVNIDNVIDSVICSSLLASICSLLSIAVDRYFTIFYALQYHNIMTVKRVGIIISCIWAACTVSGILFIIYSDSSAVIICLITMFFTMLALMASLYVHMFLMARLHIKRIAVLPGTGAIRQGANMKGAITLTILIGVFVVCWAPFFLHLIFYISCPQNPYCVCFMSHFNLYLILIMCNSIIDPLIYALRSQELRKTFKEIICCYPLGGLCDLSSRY
Procedure: as §1
(§2) To determine the IC50 for DA001 to inhibit α-MSH binding on MC1 and MC4 receptor, the compound was further characterized by a dose-dependent study. DA001 was evaluated with 8 concentrations on MC1 and MC4 receptor binding assays.
(§3) The specific ligand binding to the receptors is defined as the difference between the total binding and the nonspecific binding determined in the presence of an excess of unlabelled ligand. The results are expressed as a percent of control specific binding [(measured specific binding/control specific binding)×100] and as a percent inhibition of control specific binding {100−[(measured specific binding/control specific binding)×100]} obtained in the presence of DA001. The IC50 values (concentration causing a half-maximal inhibition of control specific binding) and Hill coefficients (nH) were determined by non-linear regression analysis of the competition curves generated with mean replicate values using Hill equation curve fitting (Y=D+[(A−D)/(1+(C/C50)nH)], where Y=specific binding, D=minimum specific binding, A=maximum specific binding, C=compound concentration, C50=IC50, and nH=slope factor). This analysis was performed using a software developed at Cerep (Hill software) and validated by comparison with data generated by the commercial software SigmaPlot® 4.0 for Windows® (© 1997 by SPSS Inc.).

[4] = target: melanin concentrating hormone receptor MCH2 (Homo sapiens, UniProt Q969V1); assay: Radioligand competition binding assay, MCH2; conditions: MCH2, DA001 10 μM, duplicate; read-out: % inhibition of control specific binding
melanin concentrating hormone receptor MCH2, sequence (Q969V1 whole entry): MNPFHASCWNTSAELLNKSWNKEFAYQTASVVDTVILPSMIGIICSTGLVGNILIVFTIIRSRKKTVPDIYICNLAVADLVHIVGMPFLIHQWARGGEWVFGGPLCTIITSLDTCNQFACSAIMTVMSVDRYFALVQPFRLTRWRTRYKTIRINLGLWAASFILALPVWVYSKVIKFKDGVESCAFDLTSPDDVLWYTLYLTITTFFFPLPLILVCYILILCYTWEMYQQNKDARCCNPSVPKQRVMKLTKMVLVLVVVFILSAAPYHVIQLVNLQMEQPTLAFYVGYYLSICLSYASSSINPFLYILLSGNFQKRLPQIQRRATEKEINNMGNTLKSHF
Procedure: as §1

[5] = target: MC3 (Homo sapiens, UniProt P41968); assay: Radioligand competition binding assay, MC3; conditions: MC3, DA001 10 μM, duplicate; read-out: % inhibition of control specific binding
MC3, sequence (P41968 whole entry): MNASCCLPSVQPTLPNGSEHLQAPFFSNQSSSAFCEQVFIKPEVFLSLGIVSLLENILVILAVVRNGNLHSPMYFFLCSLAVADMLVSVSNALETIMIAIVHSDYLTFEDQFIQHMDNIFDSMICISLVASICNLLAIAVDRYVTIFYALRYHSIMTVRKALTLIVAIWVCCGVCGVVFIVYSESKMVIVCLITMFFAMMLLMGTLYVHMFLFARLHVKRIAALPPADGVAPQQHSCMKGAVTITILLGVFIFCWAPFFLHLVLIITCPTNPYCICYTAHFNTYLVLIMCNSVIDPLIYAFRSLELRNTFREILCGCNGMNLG
Procedure: as §1

[6] = system: BDNF expression; assay: Real-time quantitative PCR, BDNF expression following NMDA treatment; type: cell-based, rat
Procedure: FIG. 20 illustrates that DA001 induces BDNF and NT-3 expression but not Bcl-2 or c-fos following NMDA treatment.
Cortical neurons were pre-treated with DA001 prior to being subjected to NMDA insults, after which total RNA was extracted at different time intervals after treatment. There was a 5-fold increase in BDNF expression after a 6 hour incubation period. BDNF expression remained ˜3-4 fold over the control (DMSO) 12-24 hours after treatment with DA001.
Total RNA was extracted followed by cDNA synthesis. Gene expression was normalized against home gene, hypoxanthine phosphoribosyltransferase 1 (HPRT1) and glyceraldehyde 3-phosphate dehydrogenase (GAPDH). Relative change in gene expression induced by DA001+H2O and DA001+NMDA was compared with the controls, DMSO+H2O and DMSO+NMDA, respectively.
Cortical neurons were pre-treated with DA001 after which the cells were subjected to NMDA insult. The expression of BDNF was measured at three different time intervals and compared to that of NT-3, Bcl-2 and c-fos. DA001 induced BDNF and NT-3 expression but not bcl-2 or c-fos under the same conditions. […]
Cortical neurons of 11DIV-12DIV were pre-incubated with DA001 or DMSO for 24hours. […] Real-time Quantitative PCR was performed using Power SYBR Green PCR Master Mix (Applied Biosystems) on the M×3000P Real-Time PCR System (Stratagene). […]

[7] = target: melanocortin-1 (MC1) receptor (Homo sapiens, UniProt Q01726); assay: Radioligand competition binding assay, MC1
melanocortin-1 (MC1) receptor, sequence (Q01726 whole entry): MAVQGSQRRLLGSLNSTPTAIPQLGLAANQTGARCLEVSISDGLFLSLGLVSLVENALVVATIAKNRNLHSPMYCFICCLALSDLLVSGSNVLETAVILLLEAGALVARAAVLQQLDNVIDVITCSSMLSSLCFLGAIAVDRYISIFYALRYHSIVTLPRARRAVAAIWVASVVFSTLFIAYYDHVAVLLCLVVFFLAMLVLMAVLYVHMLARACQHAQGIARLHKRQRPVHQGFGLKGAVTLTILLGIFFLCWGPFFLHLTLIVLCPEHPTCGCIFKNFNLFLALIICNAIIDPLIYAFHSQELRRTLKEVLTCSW
Procedure: as §1, §2, §3

[8] = target: melatonin (MT1) receptor (Homo sapiens, UniProt P48039); assay: Radioligand competition binding assay, MT1; conditions: MT1, DA001 10 μM, duplicate; read-out: % inhibition of control specific binding
melatonin (MT1) receptor, sequence (P48039 whole entry): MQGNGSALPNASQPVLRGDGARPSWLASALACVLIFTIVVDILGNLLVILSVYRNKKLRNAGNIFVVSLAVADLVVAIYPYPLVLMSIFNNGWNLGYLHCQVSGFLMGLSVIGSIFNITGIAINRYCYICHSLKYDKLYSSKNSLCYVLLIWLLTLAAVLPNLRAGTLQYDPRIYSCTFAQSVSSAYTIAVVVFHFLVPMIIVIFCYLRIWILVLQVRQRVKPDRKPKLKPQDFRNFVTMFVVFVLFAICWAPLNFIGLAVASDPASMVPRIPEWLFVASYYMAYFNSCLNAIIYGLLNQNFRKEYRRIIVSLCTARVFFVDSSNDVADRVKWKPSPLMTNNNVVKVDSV
Procedure: as §1

[9] = system: primary cortical neurons; assay: Cell toxicity test (LDH) on primary neurons; type: cell-based; conditions: 24 hours, all concentrations, maximum dose 70 μM
Procedure: FIG. 8. […] Primary cortical neurons were treated with different concentrations of DA001 for 24 hours.
This was performed to study the effects of the invention on primary neurons. Cortical neurons isolated from embryonic day 18 Spraque-Dawley rats were cultured in Neurobasal medium supplemented with 2% B27 and penicillin/streptomycin solution (Invitrogen). Primary neurons of 7 days in culture (7 DIV) were treated with various concentrations of the invention in the absence of B27 for 24 hours. Lactate dehydrogenases (LDH) was released into the medium and measured and calculated as percentage compared to 1% Triton X-100.

[10] = system: rat primary hippocampal neurons; assay: NMDA survival assay (LDH release), primary hippocampal neurons; type: cell-based; conditions: DA001 30 μM, NMDA 20 μM
Procedure: FIG. 6. DA001 protects against NMDA excitotoxicity in rat primary hippocampal neurons. Embryonic rat hippocampal neurons (11 DIV) were treated with NMDA (20 μM) in the absence or presence of DA001 (μM) or memantine (μM). LDH release in the medium was measured after overnight incubation and cell cytotoxicity was calculated in percentage when compared to solvent control (DMSO).
DA001 (at 30 μM) reduced cell death by ˜80%.
Primary cortical and hippocampal neurons were prepared from embryonic day 18 (E18) Sprague-Dawley rats. Neurons were plated on 24-well pate (TPP, Corning) at a density of 2×10^5 cells per well using Neurobasal medium (Invitrogen) supplemented with 2% B27 (Invitrogen). Neurons at 11-12 days in vitro (12DIV) were subjected to drug treatment. Neurons were pretreated with the test compound for 2 hours prior to NMDA treatment. 0.1 μM(+)-MK-801 Hydrogen Maleate (Sigma) was added as a positive control. Briefly, the neurons were rinsed with Locke's solution (5 mM potassium chloride, 128 mM sodium chloride, 2.7 mM calcium chloride, 1 mM di-sodium hydrogen orthophosphate, 5 mM HEPES and 10 mM glucose in Milli-Q water) without Mg^2+, and incubated with addition of glycine (10 μM) for 15 minutes. […] The cell death was assayed and quantified using the lactate dehydrogenase release assay (Roche) after 24 hours.

[11] = target: MC5 (Homo sapiens, UniProt P33032); assay: Radioligand competition binding assay, MC5; conditions: MC5, DA001 10 μM, duplicate; read-out: % inhibition of control specific binding
MC5, sequence (P33032 whole entry): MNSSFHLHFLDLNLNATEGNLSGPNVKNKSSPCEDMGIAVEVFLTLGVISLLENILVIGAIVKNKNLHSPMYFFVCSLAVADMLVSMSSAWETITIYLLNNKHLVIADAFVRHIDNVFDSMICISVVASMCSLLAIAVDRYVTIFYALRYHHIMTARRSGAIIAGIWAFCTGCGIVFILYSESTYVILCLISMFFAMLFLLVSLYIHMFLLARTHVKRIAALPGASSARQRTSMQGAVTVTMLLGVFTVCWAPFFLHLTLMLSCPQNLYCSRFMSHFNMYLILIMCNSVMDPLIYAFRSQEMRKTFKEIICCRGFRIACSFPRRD
Procedure: as §1

C=C(C)C1CCC2(C(N)=O)CCC3(C)C(CCC4C5(C)CCC(O)C(C)(CO)C5CCC43C)C12 (stereo not shown) [DA021, 3,23-Dihydroxy-20(29)-lupen-28-iminol]
reduction of cell death compared to DA001 [1]: reduced cell death prominently compared to DA001 | protection of cortical neurons against NMDA insult (cell death) ([1]; derivatives at 30 μM (DA026 at 10 μM), FIG. 12): showed promising protective effect

C=C(C)[C@@H]1CC[C@]2(C(=O)O)CC[C@]3(C)C(CC[C@@H]4[C@@]5(C)CC[C@H](O)[C@@](C)(CO)[C@@H]5CC[C@]43C)[C@@H]12 (stereo partly shown) [DA002, 3,23-Dihydroxy-20(29)-lupen-28-oic acid]
reduction of cell death compared to DA001 [1]: reduced cell death prominently compared to DA001

C=C(C)[C@@H]1CC[C@]2(C(=O)O)CC[C@]3(C)C(CC[C@@H]4[C@@]5(C)CC[C@H](O[C@@H]6OC[C@H](O)[C@H](O)[C@H]6O[C@@H]6O[C@@H](C)[C@H](O)[C@@H](O)[C@H]6O)[C@@](C)(CO)[C@@H]5CC[C@]43C)[C@@H]12 (stereo partly drawn) [DA001, 3-O-[α-L-rhamnopyranosyl-(1→2)-α-L-arabinopyranosyl]-3,23-dihydroxy-20(29)-lupen-28-oic acid]
inhibition at 10 µM [2]: -9% | Ki ([3]; MC4): 6.3 µM | IC50 ([3]; MC4, 8 concentrations, α-MSH binding): 6.8 µM | inhibition at 10 µM ([3]; MC4, DA001 10 μM, duplicate, 125I-NDP-α-MSH, read-out: % inhibition of control specific binding): 59% | inhibition at 10 µM [4]: -12% | inhibition at 10 µM [5]: 12% | BDNF expression over the control (DMSO) ([6]; 12-24 hours after treatment): 3-4 fold | increase in BDNF expression ([6]; after a 6 hour incubation period, DA001 pre-treatment 24 hrs, NMDA 20 μM): 5 fold | Ki ([7]; MC1): 5.2 µM | IC50 ([7]; MC1, 8 concentrations, α-MSH binding): 10 µM | inhibition at 10 µM ([7]; MC1, DA001 10 μM, duplicate, 125I-NDP-α-MSH, read-out: % inhibition of control specific binding): 64% | inhibition at 10 µM [8]: 28% | reduction of cell death compared to DMSO control ([1]; DA001 10 μg/ml, LDH release): more than 60% | cytotoxicity / cell death (LDH release) [9]: No obvious cell death was observed at all doses examined; also recorded: did not induce cytotoxicity and cell death at all concentrations examined; also recorded: no significant toxicity was observed | reduction of cell death [10]: ~80% | inhibition at 10 µM [11]: 11%
